Read-outs that look alike come from different tables or passages of the source.
Assays:
WT-EGFR = WT-EGFR (Homo sapiens, UniProt P00533); experiment: radiometric HotSpot recombinant kinase assay, […] compound, […] ATP; assay type: biochemical
EGFR [1] = target: EGFR (Homo sapiens, UniProt P00533, DEL746-750/T790M); experiment: EGFR phosphorylation in PC9GR4 cells, […] h treatment; assay type: cell-based
Chk2 = target: T1, Chk2 (Homo sapiens, UniProt O96017); experiment: radiometric HotSpot recombinant kinase assay, […] compound, […] ATP; assay type: biochemical
T1 construct: gene CHEK2

EGFR-L858R/T790M = EGFR-L858R/T790M (Homo sapiens, UniProt P00533, L858R/T790M); experiment: radiometric HotSpot recombinant kinase assay, […] compound, […] ATP; about […] inhibition; assay type: biochemical
EGFR [2] = target: EGFR (Homo sapiens, UniProt P00533, DEL746-750); experiment: EGFR phosphorylation in PC9 and HCC-827 cells, […] h treatment; assay type: cell-based
EGFR [3] = target: EGFR (Homo sapiens, UniProt P00533, T790M); experiment: EGFR phosphorylation in transfected […] cells; assay type: cell-based
NCI-H3255 = experiment: cells; design: anti-proliferative effect in NSCLC cell lines, 50% growth inhibition concentration (GI50); conditions: Homo sapiens, NCI-H3255
Source text: (§1) The exceptional activity of the inhibitor in EGFR-T790M cells was further confirmed in three-dimensional tumor spheroids derived from NCI-H1975 cells. […] Furthermore, increase of cellular fragments in Sub-G1 phase, chromatin condensation and nuclear fragmentation were observed after treatment with the EGFR-TKI (Supplementary Figure 3A). […] The human NSCLC cell lines A549, Calu-1, Calu-6, NCI-H460, NCI-H292, NCI-H1299, NCI-H1730, NCI-H23, NCI-H3255, NCI-H520, NCI-H522, NCI-H596, HCC-827, SKMES-1, SW1573 and NCI-H1975 and the human epidermoid carcinoma A431 cells were purchased from ATCC (Manassas, VA), and cultured as recommended. 293H cells were purchased from Invitrogen (Carlsbad, CA). PC9, PC9GR4, PC9DR1 and HCC-827 GR5 were a kind gift of Dr. Pasi A. Jänne, Harvard University, Boston, MA [13]. PC9/ER, HCC-827/R1 and H3255/XLR cells are isogenic erlotinib- or XL-647-resistant lines derived from PC9, HCC-827 and NCI-H3255 cells, respectively, as previously described. Additional information on cell cultures procedures is reported in the Supplemental Methods.

HCC-827 = experiment: cells; design: anti-proliferative effect in NSCLC cell lines, 50% growth inhibition concentration (GI50); conditions: Homo sapiens, HCC827
Source text: as §1

NCI-H520 = experiment: cells; design: anti-proliferative effect in NSCLC cell lines, 50% growth inhibition concentration (GI50); conditions: Homo sapiens, NCI-H520; read-out: CNX-2006 GI50
Source text: as §1

A549 = experiment: cells; design: anti-proliferative effect in NSCLC cell lines, 50% growth inhibition concentration (GI50); conditions: Homo sapiens, A549
Source text: as §1

NCI-H1299 = experiment: cells; design: anti-proliferative effect in NSCLC cell lines, 50% growth inhibition concentration (GI50); conditions: Homo sapiens, NCI-H1299; read-out: CNX-2006 GI50
Source text: as §1

NCI-H460 = experiment: cells; design: anti-proliferative effect in NSCLC cell lines, 50% growth inhibition concentration (GI50); conditions: Homo sapiens, NCI-H460
Source text: as §1

NCI-H522 = experiment: cells; design: anti-proliferative effect in NSCLC cell lines, 50% growth inhibition concentration (GI50); conditions: Homo sapiens, NCI-H522; read-out: CNX-2006 GI50
Source text: as §1

SKMES-1 = experiment: cells; design: anti-proliferative effect in NSCLC cell lines, 50% growth inhibition concentration (GI50); conditions: Homo sapiens, SK-MES-1; read-out: CNX-2006 GI50
Source text: as §1

PC9 = experiment: cells; design: anti-proliferative effect in NSCLC cell lines, 50% growth inhibition concentration (GI50); conditions: Homo sapiens, PC-9
Source text: as §1

NCI-H1703 = experiment: cells; design: anti-proliferative effect in NSCLC cell lines, 50% growth inhibition concentration (GI50); conditions: Homo sapiens, NCI-H1703; read-out: CNX-2006 GI50
Source text: as §1

NCI-H23 = experiment: cells; design: anti-proliferative effect in NSCLC cell lines, 50% growth inhibition concentration (GI50); conditions: Homo sapiens, NCI-H23; read-out: CNX-2006 GI50
Source text: as §1

SW1573 = experiment: cells; design: anti-proliferative effect in NSCLC cell lines, 50% growth inhibition concentration (GI50); conditions: Homo sapiens, SW1573
Source text: as §1

Calu-1 = experiment: cells; design: anti-proliferative effect in NSCLC cell lines, 50% growth inhibition concentration (GI50); conditions: Homo sapiens, Calu-1
Source text: as §1

NCI-H596 = experiment: cells; design: anti-proliferative effect in NSCLC cell lines, 50% growth inhibition concentration (GI50); conditions: Homo sapiens, NCI-H596
Source text: as §1

NCI-H1975 = experiment: cells; design: anti-proliferative effect in NSCLC cell lines, 50% growth inhibition concentration (GI50); conditions: Homo sapiens, NCI-H1975; read-out: CNX-2006 GI50
Source text: as §1

Calu-6 = experiment: cells; design: anti-proliferative effect in NSCLC cell lines, 50% growth inhibition concentration (GI50); conditions: Homo sapiens, Calu-6; read-out: CNX-2006 GI50
Source text: as §1

NCI-H292 = experiment: cells; design: anti-proliferative effect in NSCLC cell lines, 50% growth inhibition concentration (GI50); conditions: Homo sapiens, NCI-H292; read-out: CNX-2006 GI50
Source text: as §1

T1 sequence (O96017 whole entry): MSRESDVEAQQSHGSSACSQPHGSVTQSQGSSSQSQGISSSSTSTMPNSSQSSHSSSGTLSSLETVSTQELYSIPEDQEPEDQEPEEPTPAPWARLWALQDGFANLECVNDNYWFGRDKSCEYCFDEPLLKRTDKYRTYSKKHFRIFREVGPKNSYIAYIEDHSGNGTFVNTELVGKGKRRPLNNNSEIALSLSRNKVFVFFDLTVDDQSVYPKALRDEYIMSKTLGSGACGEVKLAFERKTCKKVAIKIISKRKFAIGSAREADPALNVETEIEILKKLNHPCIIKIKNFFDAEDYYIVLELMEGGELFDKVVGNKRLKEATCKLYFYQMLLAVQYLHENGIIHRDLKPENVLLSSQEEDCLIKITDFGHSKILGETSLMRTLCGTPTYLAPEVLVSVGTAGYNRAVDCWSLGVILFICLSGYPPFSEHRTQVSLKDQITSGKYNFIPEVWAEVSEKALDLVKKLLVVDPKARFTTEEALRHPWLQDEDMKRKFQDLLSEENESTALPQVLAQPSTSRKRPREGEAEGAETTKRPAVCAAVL

Compound: C=CC(=O)Nc1cccc(Nc2nc(Nc3ccc(NC4CN(CCF)C4)cc3OC)ncc2C(F)(F)F)c1 [CNX-2006]
- inhibition at 1 µM (WT-EGFR): > 50%
- IC50 (EGFR [1]): ~0.061 µM
- inhibition at 1 µM (Chk2): > 50%
- inhibition at 1 µM (EGFR-L858R/T790M): ~96%
- IC50 (EGFR [2]): 0.055 to 0.104 µM
- EGFR phosphorylation in transfected 293H cells (EGFR [3]): CNX-2006 effectively inhibited the phosphorylation of the receptor at low nanomolar concentrations
- GI50 (NCI-H3255; read-out: CNX-2006 GI50): 0.006 ± 0.002 µM
- GI50 (HCC-827; read-out: CNX-2006 GI50): 0.003 ± 0.002 µM
- GI50 (NCI-H520): 5.2 ± 0.4 µM
- GI50 (A549; read-out: CNX-2006 GI50): 2.7 ± 0.1 µM
- GI50 (NCI-H1299): 4.5 ± 0.5 µM
- GI50 (NCI-H460; read-out: CNX-2006 GI50): 5 ± 0.6 µM
- GI50 (NCI-H522): 1.9 ± 0.4 µM
- GI50 (SKMES-1): 1.4 ± 0.1 µM
- GI50 (PC9; read-out: CNX-2006 GI50): 0.009 ± 0.001 µM
- GI50 (NCI-H1703): 4.3 ± 0.3 µM
- GI50 (NCI-H23): 2.4 ± 0.3 µM
- GI50 (SW1573; read-out: CNX-2006 GI50): 1.9 ± 0.2 µM
- GI50 (Calu-1; read-out: CNX-2006 GI50): 8 ± 0.3 µM
- GI50 (NCI-H596; read-out: CNX-2006 GI50): 4.2 ± 0.3 µM
- GI50 (NCI-H1975): 0.072 ± 0.002 µM
- GI50 (Calu-6): 3.2 ± 0.3 µM
- GI50 (NCI-H292): 0.34 ± 0.04 µM

Compound: C=CC(=O)Nc1cccc(Nc2nc(Nc3ccc(N4CCN(C(C)=O)CC4)cc3OC)ncc2C(F)(F)F)c1 [CO-1686]
- GI50 (NCI-H3255; read-out: CO-1686 GI50): 0.005 ± 0.002 µM
- GI50 (HCC-827; read-out: CO-1686 GI50): 0.002 ± 0.001 µM
- GI50 (A549; read-out: CO-1686 GI50): 1.2 ± 0.2 µM
- GI50 (NCI-H460; read-out: CO-1686 GI50): 2.3 ± 0.2 µM
- GI50 (PC9; read-out: CO-1686 GI50): 0.004 ± 0.002 µM
- GI50 (SW1573; read-out: CO-1686 GI50): 1.1 ± 0.1 µM
- GI50 (Calu-1; read-out: CO-1686 GI50): 2 ± 0.3 µM
- GI50 (NCI-H596; read-out: CO-1686 GI50): 2 ± 0.1 µM

From publication PMC4767465, “NF-κB drives acquired resistance to a novel mutant-selective EGFR inhibitor” (Oncotarget, 2015)
